Reference: patent US8173689B2 (Novartis AG, priority 2006, dated 2012)
Read-outs that look alike come from different tables or passages of the source.

Key:
[1] = target: T1, kinase domain of cKIT (Homo sapiens, UniProt P10721); experiment: Inhibition of cKIT kinase signaling in an in vitro biochemical assay (alphascreen); conditions: read-out: cKit percent inhibition
T1 construct: The kinase domain of cKIT was assayed in 50 mM Hepes; purchased Upstate 14-559

[2] = tested on: MNFS60 (murine AML cells); experiment: Cell viability assay in MCSF dependent MNFS60 cells (Cell Titer Glo); type: cell-based; conditions: Mus musculus, tested at about 1 μM, read-out: M-NFS-60 CP percent inhibition
Experimental: Cell viability was assessed by Cell Titer Glo, Promega. […] Test compounds were serially diluted (3 fold) in DMSO to 500× the final concentration. […] Final concentration of MCSF is 10 ng/ml. Cells were incubated for 72 hrs at 37° C., 5% CO2. After the incubation 100 μl Cell Titer Glo is added to each well to determine viable cells. The assay was performed according to the manufacturer's instruction (Promega Corporation, Madison, Wis. USA). Each experimental condition was performed in triplicate. Raw data was imported in Abase and EC50s calculated with XL-fit data analysis software.

[3] = target: T2, kinase domain of PDGFRβ (Homo sapiens, UniProt P09619); experiment: Inhibition of PDGFRb kinase signaling in an in vitro biochemical assay (alphascreen); conditions: read-out: PDGFRβ percent inhibition
T2 construct: The kinase domain of PDGFRβ was assayed in 50 mM Hepes; purchased Invitrogen P3082

[4] = target: T3, cytoplasmic domain of the human CSF-1R (Homo sapiens, UniProt P07333); experiment: In vitro kinase assay for colony stimulating factor-1 receptor (AlphaScreen); type: biochemical; conditions: read-out: CSF-1R percent inhibition
T3 construct: Recombinant protein corresponding to the cytoplasmic domain of the human CSF-1R; purchased Invitrogen Corporation, Carlsbad, Calif; PV3249
T3 sequence (P07333 539-972 limits assumed): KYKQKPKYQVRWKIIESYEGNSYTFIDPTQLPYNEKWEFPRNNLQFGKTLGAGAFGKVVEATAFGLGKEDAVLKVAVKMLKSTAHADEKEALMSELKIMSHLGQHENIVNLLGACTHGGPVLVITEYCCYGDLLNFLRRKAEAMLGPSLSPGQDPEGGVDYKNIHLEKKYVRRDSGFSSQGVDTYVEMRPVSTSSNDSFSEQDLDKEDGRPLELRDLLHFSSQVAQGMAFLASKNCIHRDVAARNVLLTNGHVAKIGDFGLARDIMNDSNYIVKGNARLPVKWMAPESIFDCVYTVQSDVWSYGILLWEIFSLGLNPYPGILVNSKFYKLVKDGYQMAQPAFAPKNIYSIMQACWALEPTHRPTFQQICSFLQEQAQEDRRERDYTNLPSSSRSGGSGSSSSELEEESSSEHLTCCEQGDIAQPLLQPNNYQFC
In short: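 4 nM enzyme, 1 μM ATP; buffer 50 mM Hepes pH 7.5, 5 mM MgCl2, 10 mM MnCl2, 1.0 mM DTT, 0.1% BSA, 0.01% Tween 80. Readout: AlphaScreen, PT66 acceptor/streptavidin donor, overnight.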

[5] = tested at about 1 μM, compounds of Table 3

T1 sequence (P10721 589-937 limits assumed): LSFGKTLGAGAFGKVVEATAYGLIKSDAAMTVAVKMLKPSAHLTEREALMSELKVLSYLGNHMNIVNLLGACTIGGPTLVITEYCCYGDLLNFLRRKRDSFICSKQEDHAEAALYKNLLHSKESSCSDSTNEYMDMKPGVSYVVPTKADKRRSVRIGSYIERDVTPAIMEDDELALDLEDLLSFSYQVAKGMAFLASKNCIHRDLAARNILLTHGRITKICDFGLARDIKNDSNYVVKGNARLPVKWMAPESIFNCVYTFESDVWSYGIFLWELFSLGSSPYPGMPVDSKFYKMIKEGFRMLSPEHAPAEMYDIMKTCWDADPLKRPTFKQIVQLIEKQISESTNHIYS
T2 sequence (P09619 600-962 limits assumed): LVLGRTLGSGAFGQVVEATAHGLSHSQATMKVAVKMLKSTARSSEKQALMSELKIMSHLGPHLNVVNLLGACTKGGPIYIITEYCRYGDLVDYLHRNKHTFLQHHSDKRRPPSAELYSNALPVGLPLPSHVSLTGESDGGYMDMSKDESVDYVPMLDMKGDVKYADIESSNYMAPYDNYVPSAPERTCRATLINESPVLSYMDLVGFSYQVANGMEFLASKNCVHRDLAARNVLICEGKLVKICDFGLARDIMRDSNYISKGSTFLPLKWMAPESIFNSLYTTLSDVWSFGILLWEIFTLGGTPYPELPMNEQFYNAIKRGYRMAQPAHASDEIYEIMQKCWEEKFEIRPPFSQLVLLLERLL

SMILES	inhibition at 1 µM ([1]; tested at about 1 μM) [%]	inhibition at 1 µM ([3]; tested at about 1 μM) [%]	inhibition at 1 µM ([4]; tested at about 1 μM) [%]	inhibition at 1 µM ([2]; MNFS60 cells) [%]	also measured
c1ccc2c(Oc3ccc4nc(NCCN5CCOCC5)sc4c3)ccnc2c1 [Example 255, N-(2-morpholinoethyl)-6-(quinolin-4-yloxy)benzo[d]thiazol-2-amine]	–	–	–	–	inhibition at 1 µM [1, 5]: 92%; inhibition at 1 µM ([2]; compounds of Table 3): 69%; inhibition at 1 µM [3, 5]: 8%; inhibition at 1 µM [4, 5]: 100%
O[C@@H]1CCCC[C@H]1Nc1nc2ccc(Oc3ccnc(-c4cncs4)c3)cc2s1 [Compound 157]	–	–	–	–	inhibition at 1 µM [1, 5]: 43%; inhibition at 1 µM ([2]; compounds of Table 3): 42%; inhibition at 1 µM [3, 5]: 17%; inhibition at 1 µM [4, 5]: 100%
CNC(=O)c1cc(Oc2ccc3nc(N[C@H](CO)Cc4ccccc4)oc3c2)ccn1 [Compound 8]	–	–	–	–	inhibition at 1 µM [1, 5]: 99%; inhibition at 1 µM ([2]; compounds of Table 3): 0%; inhibition at 1 µM [3, 5]: 31%; inhibition at 1 µM [4, 5]: 95%
O[C@@H]1CCCC[C@H]1Nc1nc2ccc(Oc3ccncc3-c3cn[nH]c3)cc2s1 [Example 188]	–	–	–	–	inhibition at 1 µM [1]: 55%; inhibition at 1 µM ([2]; compounds of Table 3): 38%; inhibition at 1 µM [3]: 35%; inhibition at 1 µM [4]: 100%
c1ccc2c(c1)CCC[C@@H]2Nc1nc2ccc(Oc3ccnc4ccccc34)cc2s1 [Example 249, (S)-6-(quinolin-4-yloxy)-N-(1,2,3,4-tetrahydronaphthalen-1-yl)benzo[d]thiazol-2-amine]	–	–	–	–	inhibition at 1 µM [1, 5]: 69%; inhibition at 1 µM ([2]; compounds of Table 3): 100%; inhibition at 1 µM [3, 5]: 0%; inhibition at 1 µM [4, 5]: 100%
CC(C)C[C@@H](CO)Nc1nc2ccc(Oc3ccnc4ccccc34)cc2s1 [Example 238, (S)-4-methyl-2-(6-(quinolin-4-yloxy)benzo[d]thiazol-2-ylamino)pentan-1-ol]	–	–	–	–	inhibition at 1 µM [1, 5]: 100%; inhibition at 1 µM ([2]; compounds of Table 3): 100%; inhibition at 1 µM [3, 5]: 90%; inhibition at 1 µM [4, 5]: 100%
CC(C)(C)OC(=O)NNC(=O)c1cc(Oc2ccc3nc(NCC4CCCCC4)oc3c2)ccn1 [Compound 68, N'-{4-[2-(Cyclohexylmethyl-amino)-benzooxazol-6-yloxy]-pyridine-2-carbonyl}-hydrazinecarboxylic acid tert-butyl ester]	6	3	99	18	–
O[C@@H]1CCCC[C@H]1Nc1nc2ccc(Oc3ccnc(N4CCOCC4)c3)cc2s1 [Cmpd 175, (1R,2R)-2-(6-(2-morpholinopyridin-4-yloxy)benzo[d]thiazol-2-ylamino)cyclohexanol]	–	–	–	–	inhibition at 1 µM [1, 5]: 11%; inhibition at 1 µM ([2]; compounds of Table 3): 17%; inhibition at 1 µM [3, 5]: 1%; inhibition at 1 µM [4, 5]: 100%
CNC(=O)c1cc(Oc2ccc3nc(NCc4ccc5c(c4)OCCO5)oc3c2)ccn1 [Compound 122, 4-{2-[(2,3-Dihydro-benzo-[1,4]dioxin-6-ylmethyl)-amino]-benzooxazol-6-yloxy}-pyridine-2-carboxylic acid methylamide]	53	0	100	19	–
CNC(=O)c1cc(Oc2ccc3nc(NCC4COc5ccccc5O4)oc3c2)ccn1 (stereo not drawn) [Compound 119, 4-{2-[(2,3-Dihydro-benzo-[1,4]dioxin-2-ylmethyl)-amino]-benzooxazol-6-yloxy}-pyridine-2-carboxylic acid methylamide]	18	32	99	13	–
CNC(=O)c1cc(Oc2ccc3nc(NCc4ccc(OC)c(OC)c4)oc3c2)ccn1 [Compound 90, 4-[2-(3,4-Dimethoxy-benzyl-amino)-benzooxazol-6-yloxy]-pyridine-2-carboxylic acid methylamide]	22	–	99	18	–
CNC(=O)c1cc(Oc2ccc3nc(Nc4ccccc4CCN4CCOCC4)oc3c2)ccn1 [Compound 48, 4-{2-[2-(2-Morpholin-4-yl-ethyl)-phenylamino]-benzo-oxazol-6-yloxy}-pyridine-2-carboxylic acid methylamide]	–	0	84	0	–
CNC(=O)c1cc(Oc2ccc3nc(Nc4ccccc4-c4cnco4)oc3c2)ccn1 [Compound 46, 4-[2-(2-Oxazol-5-yl-phenylamino)-benzooxazol-6-yloxy]-pyridine-2-carboxylic acid methylamide]	–	15	94	1	–
CNC(=O)c1cc(Oc2ccc3nc(NCc4ccc(OC)cc4OC)oc3c2)ccn1 [Compound 92, 4-[2-(2,4-Dimethoxy-benzyl-amino)-benzooxazol-6-yloxy]-pyridine-2-carboxylic acid methylamide]	98	–	99	17	–

The next lines start with results.

inhibition at 1 µM ([1]; tested at about 1 μM) [%]	inhibition at 1 µM ([3]; tested at about 1 μM) [%]	inhibition at 1 µM ([4]; tested at about 1 μM) [%]	SMILES	inhibition at 1 µM ([2]; MNFS60 cells) [%]	also measured
21	19	99	CNC(=O)c1cc(Oc2ccc3nc(N[C@@H]4CCC[C@H]4O)sc3c2)ccn1 [Example 324, 4-(2-((1R,2R)-2-hydroxycyclopentylamino)benzo[d]thiazol-6-yloxy)-N-methylpicolinamide]	–	inhibition at 1 µM ([2]; MCSF dependent MNFS60 cells): 15%
26	12	100	CCNc1cc(Oc2ccc3nc(N[C@@H]4CCCC[C@H]4O)sc3c2)ccn1 [Example 369, (1R,2R)-2-(6-(2-(ethylamino)pyridin-4-yloxy)benzo[d]thiazol-2-ylamino)cyclohexanol]	–	inhibition at 1 µM ([2]; MCSF dependent MNFS60 cells): 44%
18	11	99	CNC(=O)c1cc(Oc2ccc3nc(N[C@H]4CCC[C@H]4O)sc3c2)ccn1 [Example 322, 4-(2-((1S,2R)-2-hydroxycyclopentylamino)benzo[d]thiazol-6-yloxy)-N-methylpicolinamide]	–	inhibition at 1 µM ([2]; MCSF dependent MNFS60 cells): 21%
21	2	100	CNC(=O)c1cc(Oc2ccc3nc(NCc4cc(OC)ccc4F)oc3c2)ccn1 [Compound 73, 4-[2-(2-Fluoro-5-methoxy-benzylamino)-benzooxazol-6-yloxy]-pyridine-2-carboxylic acid methylamide]	0	–
0	0	100	NC(=O)c1cc(Oc2ccc3nc(NCC4CCCCC4)oc3c2)ccn1 [Compound 69, 4-[2-(Cyclohexylmethyl-amino)-benzooxazol-6-yloxy]-pyridine-2-carboxylic acid amide]	0	–
42	–	99	CNC(=O)c1cc(Oc2ccc3nc(NCc4c(F)cccc4F)oc3c2)ccn1 [Compound 87, 4-[2-(2,6-Difluoro-benzylamino)-benzooxazol-6-yloxy]-pyridine-2-carboxylic acid methylamide]	21	–
14	–	99	CNC(=O)c1cc(Oc2ccc3nc(Nc4cccc5c4OCCO5)oc3c2)ccn1 [Compound 94, 4-[2-(2,3-Dihydro-benzo-[1,4]dioxin-5-ylamino)-benzooxazol-6-yloxy]-pyridine-2-carboxylic acid methylamide]	28	–
–	20	99	CNC(=O)c1cc(Oc2ccc3nc(NC4CCCCC4)oc3c2)ccn1 [Compound 24, 4-(2-Cyclohexylamino-benzooxazol-6-yloxy)-pyridine-2-carboxylic acid methylamide]	12	–
–	100	98	CNC(=O)c1cc(Oc2ccc3nc(Nc4ccccc4)oc3c2)ccn1 [Compound 26, 4-(2-Phenylamino-benzooxazol-6-yloxy)-pyridine-2-carboxylic acid methylamide]	24	–
–	12	99	CCOc1ccccc1Nc1nc2ccc(Oc3ccnc(C(=O)NC)c3)cc2o1 [Compound 12, 4-[2-(2-Ethoxy-phenylamino)-benzooxazol-6-yloxy]-pyridin-2-carboxylic acid methylamide]	30	–
